Data as given in patent publication US20230034660A1, “PEPTIDES THAT ENHANCE NMDA RECEPTOR FUNCTION AND USE THEREOF” (University of Pittsburgh - Of the Commonwealth System of …, priority 2019, published 2023).

What was measured:
NMDAR [1] = test: NMDAR EPSCs in DCN cartwheel cells in brain slices, ZX1 potentiation; type: cell-based, mice; details: ZX1 100 μM; for ZX1 potentiation of NMDAR-mediated synaptic currents, 20 Hz: slices treated with peptide 3 μM at least 1 hour, parallel fibers stimulated at 20 Hz, +40 mV
[2] = test system: presynaptic release of glutamate; test: Paired pulse ratio and coefficient of variance of AMPAR responses (release probability); type: cell-based, mice; details: peptide-treated slices; for paired pulse ratio (PPR): AMPAR EPSCs, 50 millisecond interval; for coefficient of variance (CV): AMPAR responses
Procedure: For brain slice recordings, whole-cell recordings of NMDAR EPSCs in slice DCN cartwheel cells were obtained with micropipettes (3-6 MΩ) containing 128 mM Cs(CH3O3S), 4 mM MgCl2·6H2O, 4 mM Na2ATP, 10 mM HEPES, 0.3 mM Tris-GTP, 10 mM Tris-phosphocreatine, 1 mM CsEGTA, 1 mM, QX-314, 3 mM sodium ascorbate, pH=˜7.2, 300 mOsm. Cartwheel cells were identified by the presence of complex spikes (Zhang and Oertel, 1993; Golding and Oertel, 1997; Tzounopoulos et al., 2004) in cell-attached configuration before break-in or in response to current injections in current-clamp mode after break-in. NMDAR EPSCs were recorded in voltage clamp mode, at a holding potential of +40 mV, in the presence of DNQX (20 μM, AMPA and kainate receptor antagonist), SR95531. (20 μM, GABAAR antagonist), and strychnine (1 μM, GlyR antagonist), ZX1 (100 μM) was included in the pipette in experiments where noted. Whole-cell recordings of AMPAR EPSCs were obtained with micropipettes containing […], 4.5 mM MgCl2·6 H2O, 14 mM Tris-phosphocreatine, 9 mM HEPES, 0.1 mM EGTA, 4 mM Na2ATP, 0.3 mM Tris-GTP, 10 mM sucrose, pH=7.3, 295 mOsm. AMPA EPSCs were recorded in voltage clamp mode at a holding potential of −70 mV in the presence of SR9551. (20 μM, GABAAR antagonist) and strychnine (1 μM, GlyR antagonist). Both NMDAR and […] EPSCs were evoked using an Isoflex stimulator (A.M.P.I. 0.1 ms pulses) stimulating parallel fibers with voltage pulses through a theta glass electrode. Stimulus intensity was adjusted to a level that consistently evoked stable responses. For paired pulse experiments, inter-stimulus interval was 50 milliseconds. Once a stable response was established, ZX1 (100 μM) was added to the recording solution to measure the effect of zinc chelation on EPSCs. The series resistance was not compensated because the currents measured were relatively small, therefore there was minimum voltage clamp error. The series resistance was monitored during the recording by delivering −5 mV voltage steps for 50 milliseconds for each sweep. The peak current value (ΔIpeak) generated immediately after the step in the command potential was used to calculate series resistance (Rseries) using the following formula: Rseries=−5 mv/ΔIpeak. […] All values reported are animal-based values, in cases where multiple cells were recorded from the same animal preparation, the average of cells is presented (Lazic et al., 2018). […]
Next, it was evaluated whether a change in presynaptic release of glutamate could contribute to the observed actions of N2AZ on NMDAR-mediated synaptic currents. […] To measure PPR, two stimuli were given in rapid succession and the ratio of the second EPSC to the first was calculated. […]

NMDAR [3] = test: NMDAR Lev-EPSCs in auditory cortex L2/3 principal neurons, ZX1 effect; type: cell-based, ICR mice; details: auditory cortex slices incubated with peptide or scramble; 100 μM ZX1; +40 mV
From the text: (FIG. 11A) Left: schematic illustration of stereotaxic injections in ICR mice, of retrograde microspheres of different colors to label corticocallosal (CCal) and corticollicular (CCol) neurons. CCol neurons were used to identify AC, and viral vector (AAV) for expression of channel rhodopsin (ChR2) in AC L2/3 PNs. Right: schematic illustrating slice electrophysiology experiment involving photostimulation of ChR2 expressing AC L2/3 PNs while recording from adjacent L2/3 PNs. (FIG. 11B) Top: representative traces of L2/3 PN NMDAR Lev-EPSCs (at +40 mV) evoked by a 0.15-ms duration pulse photostimulation of adjacent PNs in control and after 100 μM ZX1, in slices incubated with scramble. Bottom: same as the top panel in slices incubated with the peptide. (FIG. 11C) Time course of the average amplitude of NMDAR Lev-EPSCs before and after ZX1 in slices incubated with scramble and peptide. During the entire experiment application of DNQX and SR 95531 blocked AMPARs and GABAARs, correspondingly. (FIG. 11D) Average effect of ZX1 on L2/3 PN NMDAR Lev-EPSCs amplitudes normalized to control. Peptide ZX1 effect=99.02±3.8%, P=0.521, paired 1-tests, n=3 cells from two mice: Scramble ZX1 effect=159.4±15.8%, P=0.068, paired t-tests, n=4 cells from three mice. The difference is statistically significant at P=0.034, Unpaired t-test. Asterisk denotes a statistically significant difference at P<0.05. […]

Row | Sequence | ZX1 potentiation of NMDAR-mediated synaptic currents, WT littermates (NMDAR [1]; N2AZ-treated slices (3 μM) from WT littermate controls, 20 Hz) [%] | ZX1 potentiation of NMDAR-mediated synaptic currents, ZnT3 KO (NMDAR [1]; N2AZ-treated slices (3 μM) from ZnT3 null mice, 20 Hz) [%] | ZX1 potentiation of NMDAR-mediated synaptic currents, 20 Hz (NMDAR [1]) [%] | ZX1 potentiation of NMDAR EPSCs, 100 Hz (NMDAR [1]; slices treated with peptide 3 μM, 100 Hz stimulation frequency) [%] | paired pulse ratio (PPR) [2] | coefficient of variance (CV) [2] | ZX1 effect on L2/3 PN NMDAR Lev-EPSCs amplitudes normalized to control (NMDAR [3]) [%]
1 | NDSYLRSSL [Peptide N2AZ] | 5.60±4.38 | 11.9±6.90 | 19.39±5.82 | 1.95±4.33 | 2.29±0.07 | 0.26±0.031 | 99.02±3.8
2 | SNLSDSYDR [scN2AZ, reference compound] |  |  | 47.30±10.14 |  | 2.18±0.26 | 0.28±0.030 | 159.4±15.8
